Measurements as given in patent US11584744B2 (UNIVERSITY OF WASHINGTON, priority 2017, dated 2023).
Converted amounts (≈) assume the structure as drawn. “And” between values parts separate entries of the source, which are not always exact repeats. Equal values may be shown once. Read-outs that look alike come from different tables or passages of the source.

Experiments:
[1] = molecular target: recombinant S. aureus MetRS enzyme (Staphylococcus aureus, UniProt A0A0H2XID2); test: Inhibition of SaMetRS, ATP depletion assay; type: biochemical
How it was run: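 IC50 values come from sigmoidal fits of percent inhibition, based on ATP left after 120 min as measured by Kinase-Glo. Substrates were 20 μM L-methionine and 150 nM ATP, added after compounds sat 15 min at room temperature with 25 nM His-tagged SaMetRS, bulk E. coli tRNA, pH 7.9 HEPES buffer and 2% DMSO.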

[2] = tested on: S. aureus MRSA (ATCC 33591); test: MIC susceptibility testing; type: cell-based, Staphylococcus aureus; conditions: for MIC: Staphylococcus aureus
How it was run: (§1)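 CLSI broth microdilution with two-fold compound dilutions, in triplicate; cells added in medium at 1×10^6 CFUs/mL, DMSO ≤0.5%. Media: MHB for S. aureus, CA-MHB for E. coli and E. faecium, CA-MHB plus 3% laked horse blood for S. pyogenes (5% CO2).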

[3] = tested on: S. aureus MSSA (ATCC 29213); test: MIC susceptibility testing; type: cell-based, Staphylococcus aureus; conditions: for MIC: Staphylococcus aureus
[4] = tested on: E. faecium (ATCC 19434); test: MIC susceptibility testing; type: cell-based; conditions: Enterococcus faecium, ATCC19434; read-out: E. faecium (ATCC 19434) MIC
How it was run: as §1

[5] = tested on: S. epidermidis (ATCC 12228); test: MIC susceptibility testing; type: cell-based; conditions: Staphylococcus epidermidis, ATCC12228; read-out: S. epidermidis (ATCC 12228) MIC
[6] = tested on: S. epidermidis (ATCC 49134); test: MIC susceptibility testing; type: cell-based; conditions: Staphylococcus epidermidis, ATCC49134; read-out: S. epidermidis (ATCC 49134) MIC
[7] = tested on: S. pyogenes (ATCC 19615); test: MIC susceptibility testing; type: cell-based; conditions: Streptococcus pyogenes
[8] = tested on: E. faecium VRE (ATCC 51559); test: MIC susceptibility testing; type: cell-based, Enterococcus faecium; conditions: for MIC: Enterococcus faecium
How it was run: as §1

[9] = Cytotoxicity testing on mammalian cells (AlamarBlue, 48 hours); type: cell-based; conditions: human
How it was run: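 CRL-8155 human lymphoblasts and HepG2 cells exposed to serial compound dilutions for 48 h. Viability read by AlamarBlue in quadruplicate. EC50 from non-linear regression.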

[10] = Liver microsome stability; type: in vitro ADME
Protocol: Microsome stability. Liver microsome stability assays were done by contract research laboratory, Wuxi AppTec Co. (Hubei, China). Briefly, compounds at 1 μM concentration were incubated in singlet with human or CD-1 mouse liver microsomes for 6 time points (0, 5, 10, 20, 30, and 60 min). Loss of parent compound was quantified by liquid chromatography/tandem mass spectrometry.

[11] = tested on: S. aureus; test: Serum shift assays (MIC with and without 50% human serum); type: cell-based, Staphylococcus aureus; conditions: for MIC: Staphylococcus aureus
How it was run: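 MICs run in triplicate with and without 50% heat-inactivated pooled human serum in MHB. Threefold compound dilutions (≤0.5% DMSO), inoculum from 1*10^8 CFUs/mL diluted 1:100, incubated ~20 h at 37° C. MIC = lowest concentration giving ≥90% growth inhibition.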

[12] = read-out: (B) MetRS (S. aureus) IC50
[13] = recombinant enzyme, lower limit of detection 0.025 μM, read-out: MetRS S. aureus (enzyme) IC50
[14] = MRSA ATCC33591, read-out: (G) MRSA (ATCC33591) MIC
[15] = 18 h, read-out: S. aureus MSSA (ATCC 29213) MIC
[16] = ATCC19615, S. pyogenes ATCC 19615, read-out: (H) S. pyogenes (ATCC 19615) MIC
[17] = read-out: E. faecium VRE (ATCC 51559) MIC
[18] = CRL-8155 cells (human lymphoblasts), read-out: Mamm. cells (CRL8155) CC50
[19] = HepG2 cells (human hepatocellular carcinoma), read-out: Mamm. cells (HepG2) CC50
[20] = human, human liver microsomes, read-out: Microsome stability: Human T½
[21] = mouse liver microsomes, CD-1 mouse, read-out: Microsome stability: Mouse T½
[22] = 50% human serum, read-out: Avg MIC ± SEM (+50% serum)
[23] = no serum, read-out: Avg MIC ± SEM (no serum)
[24] = read-out: S. aureus MRSA (ATCC 33591) MIC
[25] = ATCC19615, 18 h, medium with 3% laked horse blood, read-out: S. pyogenes (ATCC 19615) MIC
[26] = E. faecium ATCC 51559, read-out: (I) E. faecium (ATCC 51559) MIC

Sequence of recombinant S. aureus MetRS enzyme (A0A0H2XID2 2-657): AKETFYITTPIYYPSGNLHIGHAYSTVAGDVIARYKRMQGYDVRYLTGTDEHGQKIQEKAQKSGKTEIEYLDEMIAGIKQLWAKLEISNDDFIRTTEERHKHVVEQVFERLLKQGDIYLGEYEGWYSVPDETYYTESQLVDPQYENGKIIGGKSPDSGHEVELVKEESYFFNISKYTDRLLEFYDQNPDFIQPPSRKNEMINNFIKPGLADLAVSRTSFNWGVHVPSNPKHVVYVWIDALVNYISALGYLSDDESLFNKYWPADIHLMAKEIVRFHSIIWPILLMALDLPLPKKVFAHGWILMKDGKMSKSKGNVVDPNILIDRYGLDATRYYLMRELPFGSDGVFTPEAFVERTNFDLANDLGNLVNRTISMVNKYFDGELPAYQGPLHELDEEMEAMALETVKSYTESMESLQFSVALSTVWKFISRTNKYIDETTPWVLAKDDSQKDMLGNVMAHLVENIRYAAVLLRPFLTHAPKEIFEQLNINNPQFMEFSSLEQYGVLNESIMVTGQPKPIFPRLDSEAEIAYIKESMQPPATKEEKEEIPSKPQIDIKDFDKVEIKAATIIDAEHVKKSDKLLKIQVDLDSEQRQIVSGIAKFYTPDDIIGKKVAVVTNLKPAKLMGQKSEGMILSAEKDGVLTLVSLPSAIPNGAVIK

Compound	IC50 [1, 12] [µM]	IC50 [1, 13] [µM]	MIC [2, 14] [mg/L]	MIC [3, 15] [mg/L]	MIC [4] [mg/L]	MIC [5] [mg/L]	MIC [6] [mg/L]	MIC [8, 17] [mg/L]	CC50 at 48 h [9, 18] [mg/L]	CC50 at 48 h [9, 19] [mg/L]	half-life at 1 μM [10, 20] [min]	half-life at 1 μM [10, 21] [min]	MIC [11, 22] [mg/L]	MIC [11, 23] [mg/L]	MIC [2, 24] [mg/L]	MIC [7, 25] [mg/L]	other results
CCn1c(Cc2ccc(OC)cc2Cl)cn(Cc2nc3nc(F)ccc3[nH]2)c1=O [Compound 2114, 4-[(2-chloro-4-methoxyphenyl)methyl]-3-ethyl-1-({5-fluoro-1H-imidazo[4,5-b]pyridin-2-yl}methyl)-2,3-dihydro-1H-imidazol-2-one]	< 0.025	< 0.025	1.53 (≈ 3.68 µM)	0.313 (≈ 0.753 µM)	0.078 (≈ 0.188 µM)	1.25 (≈ 3.01 µM)	1.25 (≈ 3.01 µM)	0.156 (≈ 0.375 µM)	> 20.8	> 20.8	15.2	7.7					(F) S. aureus (ATCC 29213) MIC ([3]; S. aureus ATCC 29213): 0.192 mg/L; MIC ([3]; S. aureus ATCC 29213, read-out: (F) S. aureus (ATCC 29213) MIC): 0.129 mg/L (≈ 0.31 µM); MIC [7, 16]: 0.754 mg/L (≈ 1.81 µM)
CCn1c(Cc2ccc(Cl)cc2Cl)cn(Cc2nc3nc(F)ccc3[nH]2)c1=O [Compound 2062, 4-[(2,4-dichlorophenyl)methyl]-3-ethyl-1-({5-fluoro-1H-imidazo[4,5-b]pyridin-2-yl}methyl)-2,3-dihydro-1H-imidazol-2-one]	< 0.025	< 0.025		0.078 (≈ 0.186 µM)	0.313 (≈ 0.745 µM)		1.25 (≈ 2.97 µM)	0.313 (≈ 0.745 µM)	> 21	> 21	12.6	8.4	11.8 ± 4.03	0.057 ± 0.004			
COc1cc(Cl)c(-c2cccc3nc(Cc4nc5nc(Cl)ccc5[nH]4)cn23)cc1OC [Compound 2144, 2-({5-chloro-1H-imidazo[4,5-b]pyridin-2-yl}methyl)-5-(2-chloro-4,5-dimethoxyphenyl)imidazo[1,2-a]pyridine]	< 0.025	< 0.025	0.033 (≈ 0.0726 µM)	0.0195 (≈ 0.0429 µM)	0.0195 (≈ 0.0429 µM)	0.156 (≈ 0.343 µM)	0.313 (≈ 0.689 µM)	0.0195 (≈ 0.0429 µM)	> 11.3	> 11.3	16.4	6.5	~2	0.036 ± 0.01	0.039 (≈ 0.0858 µM)	1.25 (≈ 2.75 µM)	(G) MRSA (ATCC33591) MIC ([2]; MRSA ATCC33591): 0.0216, μg/mL; (I) E. faecium (ATCC 51559) MIC ([8]; E. faecium ATCC 51559): 0.0140, μg/ml; MIC [8, 26]: 0.0126 mg/L (≈ 0.0277 µM); Avg MIC ± SEM (+50% serum) ([11]; 50% human serum): 2.06 mg/L and 2.055 ± 0.51 mg/L
Fc1ccc2nc(NCCCNCc3cc(Cl)cc(Cl)c3)[nH]c2n1 [Compound 1614, [(3,5-dichlorophenyl)methyl][3-({5-fluoro-3H-imidazo[4,5-b]pyridin-2-yl}amino)propyl]amine]		< 0.025		2.5 (≈ 6.79 µM)	0.625 (≈ 1.7 µM)	5 (≈ 13.6 µM)	10 (≈ 27.2 µM)	0.625 (≈ 1.7 µM)	14.8 (≈ 40.2 µM)	> 18.4	9.8	6.6	42.7 ± 4.1	2.47 ± 0.35	5 (≈ 13.6 µM)	> 10	
CCn1c(Cc2ccc(OC)cc2Cl)cn(Cc2nc3nc(Cl)ccc3[nH]2)c1=O [Compound 2093, 1-({5-chloro-1H-imidazo[4,5-b]pyridin-2-yl}methyl)-4-[(2-chloro-4-methoxyphenyl)methyl]-3-ethyl-2,3-dihydro-1H-imidazol-2-one]	< 0.025	< 0.025	0.123 (≈ 0.285 µM)	0.039 (≈ 0.0902 µM)	0.078 (≈ 0.18 µM)	0.625 (≈ 1.45 µM)	1.25 (≈ 2.89 µM)	0.078 (≈ 0.18 µM)	> 21.6	> 21.6	8.3	3.2	9.59 ± 1.71	0.036 ± 0.01	0.313 (≈ 0.724 µM)	1.25 (≈ 2.89 µM)	(G) MRSA (ATCC33591) MIC ([2]; MRSA ATCC33591): 0.225 µg/mL; MIC [7, 16]: 0.678 mg/L (≈ 1.57 µM); (I) E. faecium (ATCC 51559) MIC ([8]; E. faecium ATCC 51559): 0.0387 µg/mL; MIC [8, 26]: 0.0507 mg/L (≈ 0.117 µM)
CC(=O)NC[C@H]1CN(c2ccc(N3CCOCC3)c(F)c2)C(=O)O1 [LNZ, linezolid]		> 10		2.5 (≈ 7.41 µM)	2.5 (≈ 7.41 µM)	0.625 (≈ 1.85 µM)	0.625 (≈ 1.85 µM)	1.25 (≈ 3.71 µM)	> 33.7	> 33.7			1.89 ± 0.1	1.57 ± 0.1	1.25 (≈ 3.71 µM)	1.25 (≈ 3.71 µM)	
Fc1ccc2nc(NCCCN[C@@H]3CCNc4c(Cl)cc(Cl)cc43)[nH]c2n1 [Compound 1717, (4R)-6,8-dichloro—N-[3-({5-fluoro-3H-imidazo[4,5-b]pyridin-2-yl}amino)propyl]-1,2,3,4-tetrahydroquinolin-4-amine, reference compound]		< 0.025		0.156 (≈ 0.381 µM)	0.039 (≈ 0.0953 µM)	0.156 (≈ 0.381 µM)	0.313 (≈ 0.765 µM)	0.156 (≈ 0.381 µM)	5.8 (≈ 14.2 µM)	10.4 (≈ 25.4 µM)	10.3	10.3	~2	0.088 ± 0.02	0.078 (≈ 0.191 µM)	2.5 (≈ 6.11 µM)	MIC ([3]; read-out: MIC against S. aureus): 0.156 mg/L (≈ 0.381 µM); Avg MIC ± SEM (+50% serum) ([11]; 50% human serum): 2.066 ± 0.19 mg/L
